Assay results as given in patent US20220298138A1, “ENZYME INHIBITORS” (KALVISTA PHARMACEUTICALS LIMITED, priority 2019, published 2022).
pIC50: −log10 of the molar value.

Tests used:
Human Factor XIIa = target: T1, Human Factor XIIa (Homo sapiens, UniProt P00748); assay: Factor XIIa inhibitory activity in vitro (fluorogenic substrate H-DPro-Phe-Arg-AFC); assay type: biochemical; conditions: 25° C., class symbols, read-out: Human FXIIa IC50
T1 construct: purchased Enzyme Research Laboratories
T1 sequence (P00748 373-615 limits assumed): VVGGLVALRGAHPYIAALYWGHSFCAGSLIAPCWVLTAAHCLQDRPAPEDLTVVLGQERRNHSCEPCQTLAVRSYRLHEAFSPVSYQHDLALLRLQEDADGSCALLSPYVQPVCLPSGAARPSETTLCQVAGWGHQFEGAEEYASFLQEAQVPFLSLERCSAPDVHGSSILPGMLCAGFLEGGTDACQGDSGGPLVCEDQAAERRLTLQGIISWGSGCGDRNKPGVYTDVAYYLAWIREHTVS
In short: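 Enzyme incubated at 25° C with fluorogenic substrate H-DPro-Phe-Arg-AFC and a range of compound concentrations. Residual activity taken as initial reaction rate from […], giving IC50.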

Human FXIa = target: T2, Human FXIa (Homo sapiens, UniProt P03951); assay: FXIa inhibitory activity in vitro (fluorogenic substrate Z-Gly-Pro-Arg-AFC), selectivity; assay type: biochemical; conditions: category scale, 25° C.
T2 construct: Human FXIa (Enzyme Research Laboratories) was incubated; purchased Enzyme Research Laboratories
Procedure: Determination of the % Inhibition for FXIa
Human FXIa (Enzyme Research Laboratories) was incubated at 25° C. with the fluorogenic substrate Z-Gly-Pro-Arg-AFC and various concentrations of the test compound. Residual enzyme activity (initial rate of reaction) was determined by measuring the change in fluorescence at 410 nm and the IC50 value for the test compound was determined.

T2 sequence (P03951 388-625 limits assumed): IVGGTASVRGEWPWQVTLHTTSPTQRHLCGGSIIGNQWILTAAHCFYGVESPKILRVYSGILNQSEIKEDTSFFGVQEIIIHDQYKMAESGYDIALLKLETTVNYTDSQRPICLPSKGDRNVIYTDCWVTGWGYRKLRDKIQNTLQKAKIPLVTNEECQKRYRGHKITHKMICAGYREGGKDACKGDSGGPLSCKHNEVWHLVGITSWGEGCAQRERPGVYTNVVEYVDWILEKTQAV
T2 sequence (P03951 19-387 partner limits assumed): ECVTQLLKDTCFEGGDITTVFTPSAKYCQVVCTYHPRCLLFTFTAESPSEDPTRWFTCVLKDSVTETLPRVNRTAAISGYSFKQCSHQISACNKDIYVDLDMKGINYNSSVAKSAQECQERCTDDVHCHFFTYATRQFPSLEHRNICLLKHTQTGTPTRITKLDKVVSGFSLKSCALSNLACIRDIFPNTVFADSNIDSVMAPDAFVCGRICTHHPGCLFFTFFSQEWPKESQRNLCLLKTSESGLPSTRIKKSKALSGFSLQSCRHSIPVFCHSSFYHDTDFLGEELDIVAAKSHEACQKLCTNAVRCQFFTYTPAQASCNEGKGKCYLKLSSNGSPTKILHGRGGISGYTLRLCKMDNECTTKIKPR

SMILES | pIC50 (Human Factor XIIa) | pIC50 (Human FXIa)
CC(C)c1cc(C(=O)N[C@@H](Cc2ccc(F)c(F)c2)C(=O)NCc2ccc3c(N)nccc3c2)nc2ncnn12 [Example 0.64, (S)—N-(1-(((1-Aminoisoquinolin-6-yl)methyl)amino)-3-(3,4-difluorophenyl)-1-oxopropan-2-yl)-7-isopropyl-[1,2,4]triazolo[1,5-a]pyrimidine-5-carboxamide] | 6.00 to 6.55 | < 4.40
CC(C)n1cc(C(=O)N[C@@H](Cc2ccc(F)c(F)c2)C(=O)NCc2ccc3c(N)nccc3c2)ccc1=O [Example 0.94] | 5.52 to 6.00 | < 4.40
CC(C)Oc1cc(C(=O)N[C@@H](Cc2ccc(F)c(F)c2)C(=O)NCc2ccc3c(N)nccc3c2)ccn1 [Example 0.95] | 4.40 to 5.00 | < 4.40
CC(C)n1ccc(C(=O)N[C@@H](Cc2ccc(F)c(F)c2)C(=O)NCc2ccc3c(N)nccc3c2)cc1=O [Example 0.96] | 5.00 to 5.52 | < 4.40
CC(C)c1cc(C(=O)N[C@@H](Cc2ccc(F)c(F)c2)C(=O)NCc2ccc3c(N)nccc3c2)cnn1 [Example 0.97] | 5.52 to 6.00 | < 4.40
CC(C)c1cncc(C(=O)N[C@@H](Cc2ccc(F)c(F)c2)C(=O)NCc2ccc3c(N)nccc3c2)n1 [Example 0.98] | 4.40 to 5.00 | < 4.40
CC(C)c1ccnc(C(=O)N[C@@H](Cc2ccc(F)c(F)c2)C(=O)NCc2ccc3c(N)nccc3c2)n1 [Example 0.99] | 4.40 to 5.00 | < 4.40
CC1CCCC(C)N1CC(=O)N[C@@H](Cc1ccc(F)c(F)c1)C(=O)NCc1ccc2c(N)nccc2c1 (stereo partly shown) [Example 3.01] | 6.55 to 7.00 | < 4.40
C[C@@H]1CCC[C@H](C)N1CC(=O)N[C@@H](Cc1ccc(F)c(F)c1)C(=O)NCc1ccc2c(N)nccc2c1 [Example 3.42, (2S)—N-[(1-aminoisoquinolin-6-yl)methyl]-3-(3,4-difluorophenyl)-2-{2-[(2R,6S)-2,6-dimethylpiperidin-1-yl]acetamido}propanamide] | 7.00 to 7.52 | < 4.40
C[C@H](NC(=O)[C@H](N)CCc1ccccc1)C(=O)NCc1ccc2c(N)nccc2c1 [Example 6.09] | 6.55 to 7.00 | 4.40 to 5.00
CN[C@H](CCc1ccccc1)C(=O)N[C@@H](C)C(=O)NCc1ccc2c(N)nccc2c1 [Example 6.10] | 6.55 to 7.00 | 4.40 to 5.00
CC(C)N[C@H](CCc1ccccc1)C(=O)N[C@@H](C)C(=O)NCc1ccc2c(N)nccc2c1 [Example 6.11] | 6.00 to 6.55 | 5.00 to 5.52
C[C@H](NC(=O)[C@@H](N)CCc1ccccn1)C(=O)NCc1ccc2c(N)nccc2c1 [Example 6.12] | 4.40 to 5.00 | < 4.40
C[C@H](NC(=O)[C@H](N)CCc1ccccn1)C(=O)NCc1ccc2c(N)nccc2c1 [Example 6.13] | 6.00 to 6.55 | < 4.40
C[C@H](NC(=O)[C@H](N)CCCCN1CCCCC1)C(=O)NCc1ccc2c(N)nccc2c1 [Example 6.14] | 5.52 to 6.00 | 4.40 to 5.00
C[C@H](NC(=O)[C@H](N)CCc1ccncc1)C(=O)NCc1ccc2c(N)nccc2c1 [Example 6.15] | 5.00 to 5.52 | < 4.40
C[C@H](NC(=O)[C@H](N)COCc1ccccc1)C(=O)NCc1ccc2c(N)nccc2c1 [Example 6.16] | 4.40 to 5.00 | 4.40 to 5.00
C[C@H](NC(=O)[C@H](N)COc1ccccc1)C(=O)NCc1ccc2c(N)nccc2c1 [Example 6.17] | 4.40 to 5.00 | 4.40 to 5.00
C[C@H](NC(=O)[C@H](N)CCCc1ccccc1)C(=O)NCc1ccc2c(N)nccc2c1 [Example 6.18] | 5.00 to 5.52 | 5.00 to 5.52
C[C@H](NC(=O)[C@@H](CCc1ccccc1)NC1CCCCC1)C(=O)NCc1ccc2c(N)nccc2c1 [Example 6.19] | 7.00 to 7.52 | 6.00 to 6.52
C[C@H](NC(=O)[C@@H](CCc1ccccc1)NS(C)(=O)=O)C(=O)NCc1ccc2c(N)nccc2c1 [Example 6.20] | 6.00 to 6.55 | 6.00 to 6.52
CC(NC(=O)[C@H](N)CCc1ccccc1)C(=O)NCc1ccc2ccnc(N)c2c1 (stereo partly shown) [Example 6.21] | 4.40 to 5.00 | < 4.40
COc1cc2c(N)nccc2cc1CNC(=O)[C@H](C)NC(=O)[C@H](N)CCc1ccccc1 [Example 6.22] | 4.40 to 5.00 | 5.00 to 5.52
C[C@H](NC(=O)[C@@H](CCc1ccccc1)N1CCCC1)C(=O)NCc1ccc2c(N)nccc2c1 [Example 6.23] | 6.55 to 7.00 | < 4.40
C[C@H](NC(=O)[C@H](O)CCc1ccccc1)C(=O)NCc1ccc2c(N)nccc2c1 [Example 6.24] | 4.40 to 5.00 | 4.40 to 5.00
C[C@H](NC(=O)[C@@H](CCc1ccccc1)NC(=O)OC(C)(C)C)C(=O)NCc1ccc2c(N)nccc2c1 [Example 6.25] | 5.00 to 5.52 | 4.40 to 5.00
C[C@H](NC(=O)[C@H](N)CCc1ccccc1)C(=O)NCc1cnc2[nH]cc(Cl)c2c1 [Example 9.01] | 6.00 to 6.55 | 4.40 to 5.00

SMILES | pIC50 (Human Factor XIIa) | pIC50 (Human FXIa)
C[C@H](NC(=O)[C@H](N)CCc1ccccc1)C(=O)N[C@@H]1CCc2c1ccnc2N [Example 9.02] | 6.00 to 6.55 | < 4.40
CC(C)N[C@H](CCc1ccccc1)C(=O)N[C@@H](C)C(=O)NCc1cnc2[nH]cc(Cl)c2c1 [Example 9.03] | 5.52 to 6.00 | < 4.40
C[C@H](NC(=O)[C@H](N)CCc1ccccc1)C(=O)NCc1ccc2[nH]cc(Cl)c2c1 [Example 9.04] | 5.00 to 5.52 | < 4.40
COc1ccc(-n2ccc(C(F)(F)F)n2)c(CNC(=O)[C@H](C)NC(=O)[C@@H](N)CCc2ccccc2)c1F [Example 9.05] | 4.40 to 5.00 | 5.52 to 6.00
Cc1c(CNC(=O)[C@H](C)NC(=O)[C@H](N)CCc2ccccc2)ccc2c(N)nccc12 [Example 9.06] | 6.55 to 7.00 | 4.40 to 5.00
C[C@H](NC(=O)[C@H](N)CCc1ccccc1)C(=O)NCc1cc2c(N)nccc2s1 [Example 9.07, (2R)—N-[(1S)-1-[({4-Aminothieno[3,2-c]pyridin-2-yl}methyl)carbamoyl]ethyl]-2-amino-4-phenylbutanamide] | 6.55 to 7.00 | < 4.40
CC(C)N[C@H](CCc1ccccc1)C(=O)N[C@@H](C)C(=O)NCc1ccc2[nH]cc(Cl)c2c1 [Example 9.08] | 5.52 to 6.00 | 4.40 to 5.00
C[C@@H]1CCC[C@H](C)N1CC(=O)N[C@@H](Cc1ccc(F)c(F)c1)C(=O)NCc1ccc2c(cnn2C)c1 [Example 34.08] | 4.40 to 5.00 | 
CC1CCCC(C)N1CC(=O)NCCC(=O)NCc1ccc2c(N)nccc2c1 (stereo not shown) [Example 39.01] | 4.40 to 5.00 | 
C[C@H](NC(=O)CN1[C@H](C)CCC[C@@H]1C)C(=O)NCc1ccc2c(N)nccc2c1 [Example 39.02] | 5.00 to 5.52 | 
C[C@@H]1CCC[C@H](C)N1CC(=O)NCC(=O)NCc1ccc2c(N)nccc2c1 [Example 39.03] | 4.40 to 5.00 | 
C[C@@H]1CCC[C@H](C)N1CC(=O)N[C@H](CC(=O)NCc1ccc2c(N)nccc2c1)Cc1ccccc1 [Example 39.04] | 4.40 to 5.00 | 
CC(OCc1ccccc1)[C@H](NC(=O)CN1[C@H](C)CCC[C@@H]1C)C(=O)NCc1ccc2c(N)nccc2c1 (stereo partly shown) [Example 39.05] | 5.00 to 5.52 | 
CC(O)[C@H](NC(=O)CN1[C@H](C)CCC[C@@H]1C)C(=O)NCc1ccc2c(N)nccc2c1 (stereo partly drawn) [Example 39.06, (2S)—N-[(1-Aminoisoquinolin-6-yl)methyl]-2-{2-[(2R,6S)-2,6-dimethylpiperidin-1-yl]acetamido}-3-hydroxybutanamide] | 4.40 to 5.00 | 
C[C@@H]1CCC[C@H](C)N1C(=O)N[C@H](CC(=O)NCc1ccc2c(N)nccc2c1)Cc1ccccc1 [Example 39.07] | 4.40 to 5.00 | 
C[C@@H]1CCC[C@H](C)N1CC(=O)NC(C)(C)C(=O)NCc1ccc2c(N)nccc2c1 [Example 39.08] | 4.40 to 5.00 | 
CC(C)N1CCC[C@@H]1C(=O)N[C@@H](Cc1ccc(F)c(F)c1)C(=O)NCc1ccc2c(N)nccc2c1 [Example 44.01] | 6.00 to 6.55 | 
CC(C)N1CCC[C@@H]1C(=O)N[C@@H](Cc1ccc(F)c(F)c1)C(=O)NC1CCN(c2ccncc2)CC1 [Example 44.02] | 4.40 to 5.00 | 
CC(C)N1CCC[C@@H]1C(=O)N[C@@H](Cc1ccc(F)c(F)c1)C(=O)NCc1cccc2[nH]ccc12 [Example 44.03] | 4.40 to 5.00 | 
CC(C)N1CCC[C@@H]1C(=O)N[C@@H](Cc1ccc(F)c(F)c1)C(=O)NCc1cnc2[nH]ccc2c1 [Example 44.04] | 4.40 to 5.00 | 
CC(C)N1CCC[C@@H]1C(=O)N[C@@H](Cc1ccc(F)c(F)c1)C(=O)NCc1ccc2[nH]ncc2c1 [Example 44.05] | 4.40 to 5.00 | 
CC(C)N1CCC[C@@H]1C(=O)N[C@@H](Cc1ccc(F)c(F)c1)C(=O)NCc1ccc2c(cnn2C)c1 [Example 44.06] | 4.40 to 5.00 | 
CCCS(=O)(=O)N[C@@H](Cc1ccc(F)c(F)c1)C(=O)NCc1ccc2c(N)nccc2c1 [Example 55.01] | 4.40 to 5.00 | 
CS(=O)(=O)N[C@@H](Cc1ccc(F)c(F)c1)C(=O)NCc1ccc2c(N)nccc2c1 [Example 55.02] | 4.40 to 5.00 | 
N#Cc1ccccc1CN[C@@H](Cc1ccc(F)c(F)c1)C(=O)NCc1ccc2c(N)nccc2c1 [Example 55.03] | 4.40 to 5.00 | 
N#Cc1ccc(CS(=O)(=O)N[C@@H](Cc2ccc(F)c(F)c2)C(=O)NCc2ccc3c(N)nccc3c2)cc1 [Example 55.04] | 4.40 to 5.00 | 
Cc1ccc(C)c(S(=O)(=O)NCC(=O)N[C@@H](Cc2ccc(F)c(F)c2)C(=O)NCc2ccc3c(N)nccc3c2)c1 [Example 55.05] | 5.52 to 6.00 | 
